Dmax data for seven compounds are collected here from patent publication US20250170130A1, “MODULATORS OF MYC FAMILY PROTO-ONCOGENE PROTEIN” (Nalo Therapeutics, priority 2022, published 2025).

Read-outs that look alike come from different tables or passages of the source.

Assay [1] has as its target T1, MycC (Homo sapiens, UniProt P01106).
T1 construct: endogenous in cells; host or cells: L363
Kind of assay: Degradation of MycC protein in L363 cells, JESS/Western blot of lysates. The format is cell-based. Conditions: L-363, 24 h; for Dmax at 0.5 µM: read-out: % Degradation of MycC (L-363) 24 h, 0.5 μM; for Dmax at 1 µM: read-out: % Degradation of MycC (L-363) 24 h, 1 μM; for Dmax at 3 µM: read-out: % Degradation of MycC (L-363) 24 h, 3 μM; for Dmax at 6 µM: read-out: % Degradation of MycC (L-363) 24 h, 6 μM. The essentials:
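L363 suspension cells were seeded at 1E6 cells per well and exposed to compound (stock 10 mM in DMSO) for 24 hrs. Cells were collected, spun down, rinsed with PBS, lysed in RIPA buffer cocktail on ice, clarified and kept at −80 degrees. Lysate protein was quantified by BCA, and c-myc was measured on JESS by chemiluminescence with tubulin and GAPDH loading controls in the NIR channel.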

For assay [2], the target named is T2, MycN (Homo sapiens, UniProt P04198).
T2 construct: endogenous in cells; host or cells: SK-N-BE(2)
T2 sequence (P04198 1-464): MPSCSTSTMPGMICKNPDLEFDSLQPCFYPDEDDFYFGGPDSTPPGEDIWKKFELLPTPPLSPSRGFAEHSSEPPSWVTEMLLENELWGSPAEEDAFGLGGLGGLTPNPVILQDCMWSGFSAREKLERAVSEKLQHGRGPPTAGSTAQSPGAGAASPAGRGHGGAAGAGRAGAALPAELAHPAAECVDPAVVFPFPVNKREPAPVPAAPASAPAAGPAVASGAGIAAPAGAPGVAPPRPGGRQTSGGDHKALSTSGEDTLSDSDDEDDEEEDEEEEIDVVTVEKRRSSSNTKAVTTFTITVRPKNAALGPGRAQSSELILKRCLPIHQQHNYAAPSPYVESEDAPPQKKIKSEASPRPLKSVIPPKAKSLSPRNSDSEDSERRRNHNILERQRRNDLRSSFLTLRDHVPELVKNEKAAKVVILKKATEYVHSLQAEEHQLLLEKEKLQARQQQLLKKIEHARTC
Kind of assay: Degradation of MycN protein in SK-N-BE(2) cells, JESS/Western blot of lysates. It counts as cell-based. To be noted: SKNBE2, 24 h; for Dmax at 0.5 µM: read-out: % Degradation of MycN (SKNBE2) 24 h, 0.5 μM; for Dmax at 1 µM: read-out: % Degradation of MycN (SKNBE2) 24 h, 1 μM; for Dmax at 3 µM: read-out: % Degradation of MycN (SKNBE2) 24 h, 3 μM; for Dmax at 6 µM: read-out: % Degradation of MycN (SKNBE2) 24 h, 6 μM. The gist of the method:
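SK-N-BE(2) adherent cells (5E5 per well of a 6 well dish) were grown 24 hrs, then exposed to compounds diluted 1 in 20 in media, with DMSO controls, for 24 hrs. Cells were scraped, pelleted, PBS washed and lysed in RIPA buffer cocktail; after BCA protein quantitation, n-myc was detected by chemiluminescence on JESS/Western blot with tubulin and GAPDH loading controls read in the near infra red channel.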

T1 sequence (P01106 whole entry): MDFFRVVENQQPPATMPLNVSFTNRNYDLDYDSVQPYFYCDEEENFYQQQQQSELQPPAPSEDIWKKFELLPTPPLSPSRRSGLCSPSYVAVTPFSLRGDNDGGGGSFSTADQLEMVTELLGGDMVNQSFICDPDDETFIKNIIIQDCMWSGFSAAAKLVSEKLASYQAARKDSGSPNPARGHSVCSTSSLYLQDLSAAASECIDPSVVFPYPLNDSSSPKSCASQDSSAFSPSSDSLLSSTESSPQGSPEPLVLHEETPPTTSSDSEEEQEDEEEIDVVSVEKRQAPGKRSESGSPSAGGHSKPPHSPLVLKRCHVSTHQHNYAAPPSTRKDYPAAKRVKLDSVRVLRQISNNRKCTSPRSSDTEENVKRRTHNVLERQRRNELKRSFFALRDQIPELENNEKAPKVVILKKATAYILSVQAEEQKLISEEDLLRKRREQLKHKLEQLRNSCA

Take `CN(C)C[C@H]1CCN(c2nccc(Nc3cc(C4CCCC4)[nH]n3)n2)C1` [Compound 111, N-(5-Cyclopentyl-1H-pyrazol-3-yl)-2-[(3R)-3-[(dimethylamino)methyl]pyrrolidin-1-yl]pyrimidin-4-amine]: the Dmax at 0.5 µM in assay [1] (L-363 cells, 24 h) is below 20%; in assay [2] (SKNBE2 cells, 24 h, 0.5 μM), below 20%. In addition, the Dmax at 1 µM in assay [1] (L-363 cells, 24 h, 1 μM) was below 20%; in assay [2] (SKNBE2 cells, 24 h, 1 μM) it was below 20%. The Dmax at 3 µM in assay [1] (L-363 cells, 24 h, 3 μM) is below 20%; in assay [2] (SKNBE2 cells, 24 h, 3 μM), below 20%. Moreover, the Dmax at 6 µM is below 20% in assay [1] (L-363 cells, 24 h, 6 μM) and 50 to 79% in assay [2] (SKNBE2 cells, 24 h, 6 μM).
`CN1CC2(CCN(c3nccc(Nc4cc(C5CC5)[nH]n4)n3)C2)C1` [Compound 3, N-(5-cyclopropyl-1H-pyrazol-3-yl)-2-(2-methyl-2,6-diazaspiro[3.4]octan-6-yl)pyrimidin-4-amine]: the Dmax at 0.5 µM in assay [1] (L-363 cells, 24 h) is below 20%; in assay [2] (SKNBE2 cells, 24 h, 0.5 μM), below 20%. Moreover, the Dmax at 1 µM in assay [1] (L-363 cells, 24 h, 1 μM) was 20 to 49%; in assay [2] (SKNBE2 cells, 24 h, 1 μM), below 20%. The Dmax at 6 µM in assay [1] (L-363 cells, 24 h, 6 μM) was 80 to 100%; in assay [2] (SKNBE2 cells, 24 h, 6 μM) it was 50 to 79%. Further, the Dmax at 3 µM in assay [2] (SKNBE2 cells, 24 h, 3 μM) is below 20%.
As to `CN1CC(C2CN(c3nccc(Nc4cc(C5CCCC5)[nH]n4)n3)C2)C1` [Compound 65, N-(5-Cyclopentyl-1H-pyrazol-3-yl)-2-[3-(1-methylazetidin-3-yl)azetidin-1-yl]pyrimidin-4-amine], the Dmax at 0.5 µM was below 20% in assay [1] (L-363 cells, 24 h) and below 20% in assay [2] (SKNBE2 cells, 24 h, 0.5 μM). Further, the Dmax at 1 µM in assay [1] (L-363 cells, 24 h, 1 μM) is below 20%; in assay [2] (SKNBE2 cells, 24 h, 1 μM), below 20%. For the same compound, the Dmax at 3 µM in assay [1] (L-363 cells, 24 h, 3 μM) is below 20%; in assay [2] (SKNBE2 cells, 24 h, 3 μM), 20 to 49%. Besides, the Dmax at 6 µM was in the range of 50 to 79% in assay [1] (L-363 cells, 24 h, 6 μM) and 50 to 79% in assay [2] (SKNBE2 cells, 24 h, 6 μM).
As for `CNC[C@H]1CN(c2nccc(Nc3cc(C4CC4)[nH]n3)n2)C[C@H]1F` [Compound 191, N-(5-Cyclopropyl-1H-pyrazol-3-yl)-2-[(3S,4S)-3-fluoro-4-(methylaminomethyl)pyrrolidin-1-yl]pyrimidin-4-amine], the Dmax at 1 µM in assay [1] (L-363 cells, 24 h, 1 μM) is below 20%; in assay [2] (SKNBE2 cells, 24 h, 1 μM), 20 to 49%. In addition, the Dmax at 3 µM is 50 to 79% in assay [1] (L-363 cells, 24 h, 3 μM) and 80 to 100% in assay [2] (SKNBE2 cells, 24 h, 3 μM). Also, the Dmax at 6 µM lay within 80 to 100% in assay [1] (L-363 cells, 24 h, 6 μM) and 80 to 100% in assay [2] (SKNBE2 cells, 24 h, 6 μM). Further, the Dmax at 0.5 µM in assay [2] (SKNBE2 cells, 24 h, 0.5 μM) is below 20%.
As for `CNCC12CCC(C1)N(c1nccc(Nc3cc(C4CCCC4)[nH]n3)n1)C2` (stereo not shown) [Compound 114], the Dmax at 0.5 µM lay in the range of 80 to 100% in assay [1] (L-363 cells, 24 h) and 80 to 100% in assay [2] (SKNBE2 cells, 24 h, 0.5 μM). In addition, the Dmax at 1 µM in assay [1] (L-363 cells, 24 h, 1 μM) was in the range of 80 to 100%; in assay [2] (SKNBE2 cells, 24 h, 1 μM), 80 to 100%. For the same compound, the Dmax at 3 µM was in the range of 80 to 100% in assay [1] (L-363 cells, 24 h, 3 μM) and 80 to 100% in assay [2] (SKNBE2 cells, 24 h, 3 μM). The Dmax at 6 µM in assay [1] (L-363 cells, 24 h, 6 μM) was 80 to 100%; in assay [2] (SKNBE2 cells, 24 h, 6 μM), 80 to 100%.
For `N#CC1(CN)CCCN(c2nccc(Nc3cc(C4CC4)[nH]n3)n2)C1` (stereo not shown) [Compound 119, 3-(Aminomethyl)-1-[4-[(5-cyclopropyl-1H-pyrazol-3-yl)amino]pyrimidin-2-yl]piperidine-3-carbonitrile], in assay [1], the Dmax at 1 µM was 50 to 79%, the Dmax at 3 µM was in the range of 80 to 100% and the Dmax at 6 µM is 80 to 100%. Moreover, in assay [2], the Dmax at 0.5 µM fell in the range of 50 to 79%, the Dmax at 1 µM fell in the range of 50 to 79%, the Dmax at 3 µM lay within 80 to 100% and the Dmax at 6 µM lay within 80 to 100%.
Turning to `CNC[C@H]1CCN(c2nccc(Nc3cc(C4CCCC4)[nH]n3)n2)C1` [Compound 35, N-(5-cyclopentyl-1H-pyrazol-3-yl)-2-[(3R)-3-(methylaminomethyl)pyrrolidin-1-yl]pyrimidin-4-amine], the Dmax at 1 µM in assay [1] (L-363 cells, 24 h, 1 μM) is below 20%; in assay [2] (SKNBE2 cells, 24 h, 1 μM), 50 to 79%. For the same compound, the Dmax at 3 µM in assay [1] (L-363 cells, 24 h, 3 μM) lay within 50 to 79%; in assay [2] (SKNBE2 cells, 24 h, 3 μM) it was 80 to 100%. The Dmax at 6 µM in assay [1] (L-363 cells, 24 h, 6 μM) lay in the range of 80 to 100%; in assay [2] (SKNBE2 cells, 24 h, 6 μM) it was 80 to 100%. Moreover, the Dmax at 0.5 µM in assay [2] (SKNBE2 cells, 24 h, 0.5 μM) is 20 to 49%.
